Data published in patent US20160024092A1, “INTRAVENOUS FORMULATIONS OF NEUROKININ-1 ANTAGONISTS” (OPKO Health, Inc., priority 2009, published 2016).
In brackets after ≈: the same amount, converted by molar mass. Where two headings read alike, the source gives them in different places.

Assays:
[1] = Equilibrium solubility of Compound 1 (HPLC); format: physicochemical; details: for solubility thermodynamic: thermodynamic from solid, pH 7.0
[2] = pKa of Compound 1; format: physicochemical
[3] = system: red blood cells; assay: Hemolytic testing in rats after intravenous administration (hemoglobin in urine, Hemastix reagent strips); format: in vivo, rat; design: key: Hemastix scale: 0=negative, 1=non-hemolyzed trace … 6=large+++; details: 1-2 min slow-hand bolus, 10 mg/mL drug in 22% Solutol HS15, pH 7.0
Source text: The term “hemolysis” as used herein means destruction of red blood cells which leads to the release of hemoglobin from within the red blood cells into the blood plasma. Hemolysis can be measured by methods well known in the art, e.g., Hemastix® reagent strips (Bayer Corp., Elkhart, Ind.) which detect blood in urine. The
Hemastix® reagent strips turn from yellow to dark green depending upon the amount of hemoglobin found in the urine. The Hemastix® scale is as follows: 0=negative, 1=non-hemolyzed trace, 3=hemolyzed trace, 4=small+, 5=moderate++, and 6=large+++.
Urine samples from the rats were assessed for hemolysis using Hemastix® reagent strips (No. 2190, Bayer Corp., Elkhart Ind.). […] The Hemastix® reagent strips detect the peroxide-like activity of hemoglobin. The strips turn from yellow to dark green depending upon the amount of hemoglobin found in the urine. The Hemastix® scale is as follows: 0=negative, 1=non-hemolyzed trace, 3=hemolyzed trace, 4=small+, 5=moderate++, and 6=large+++.
The methodology for this study was to administer (into the tail vein of a rat) each formulation over 15 minutes by intravenous infusion using an infusion pump or to administer the formulation within two minutes by bolus route using a syringe. Urine was tested for the presence of free hemoglobin using the pooled urine collection method at the six-hour interval. For the six hour pooled urine collection, rats were dosed and placed in a metabolism cage. Six hour post dose, the rats were euthanized by carbon dioxide over-inhalation, and the urine sample was collected. A minimum of five subjects were tested for each formulation and the urine samples were analyzed for hemolysis using Hemastix® reagent strips as indicated in Comparative Example 2.
[…] If the rat voided any urine in the cage, the urine was analyzed using Hemastix® reagent strips to determine the presence of hemoglobinuria.
The methodology for this example was to administer each formulation over 15 minutes by i.v. infusion using an infusion pump or to administer the formulations within 2 minutes by bolus injection using a syringe and delivering the formulation into the tail vein of a rat. Urine was tested by dipstick for the presence of free hemoglobin using the pooled urine collection method at the 6-hour interval.

[4] = in vivo

Molecule `C[C@@H](OC[C@@]1(c2ccccc2)CC[C@]2(CCC(=O)N2)CN1)c1cc(C(F)(F)F)cc(C(F)(F)F)c1` [Compound 1, (5S,8S)-8-[{(1R)-1-(3,5-Bis-(trifluoromethyl)phenyl)-ethoxy}-methyl]-8-phenyl-1,7-diazaspiro[4.5]decan-2-one] has a solubility thermodynamic ([1]; 16% Captisol (sulfobutyl ether beta-cyclodextrin), aqueous with cosolvent or surfactant or cyclodextrin, 16% Captisol) of under 0.006 mg/mL, a solubility ([1]; 22% Solutol, aqueous with cosolvent or surfactant or cyclodextrin) of 50 mg/mL (≈ 99.9 mM) and a solubility thermodynamic ([1]; aqueous with cosolvent or surfactant or cyclodextrin, 20% Solutol) of about 50 mg/mL (≈ 99.9 mM). For the same molecule, the solubility ([1]; pH 7.4, aqueous buffer, read-out: solubility at the physiological pH of 7.4) was under 0.004 mg/mL, the pKa [2] was 6.9 and the “Hemolysis (Female rats)” value ([3]; 10 mg/kg, 15 min) was 1. The “Hemolysis (Male rats)” value ([3]; 10 mg/kg, 15 min) was 3, the “Hemolysis (Female rats)” value ([3]; 10 mg/kg, 30 min) was 1 and the “Hemolysis (Male rats)” value ([3]; 10 mg/kg, 30 min) was 0. The “Hemolysis (Female rats)” value ([3]; 10 mg/kg, 60 min) was 0, the “Hemolysis (Male rats)” value ([3]; 10 mg/kg, 60 min) was 0 and the “Hemolysis (Female rats)” value ([3]; 20 mg/kg, 15 min) was 3. For the same molecule, the “Hemolysis (Male rats)” value ([3]; 20 mg/kg, 15 min) was 3, the “Hemolysis (Female rats)” value ([3]; 20 mg/kg, 30 min) was 0 and the “Hemolysis (Male rats)” value ([3]; 20 mg/kg, 30 min) was 3. For the same molecule, the “Hemolysis (Female rats)” value ([3]; 20 mg/kg, 60 min) was 0, the “Hemolysis (Male rats)” value ([3]; 20 mg/kg, 60 min) was 0 and the “Hemolysis (Female rats)” value ([3]; 30 mg/kg, 15 min) was 3. The “Hemolysis (Male rats)” value ([3]; 30 mg/kg, 15 min) was 3, the “Hemolysis (Female rats)” value ([3]; 30 mg/kg, 30 min) was 2 and the “Hemolysis (Male rats)” value ([3]; 30 mg/kg, 30 min) was 0. For the same molecule, the “Hemolysis (Female rats)” value ([3]; 30 mg/kg, 60 min) was 0, the “Hemolysis (Male rats)” value ([3]; 30 mg/kg, 60 min) was 0 and the “time at which half concentration is achieved” value [4] was “around 180 hrs”.
